EC50 data for 22 compounds are collected here from patent US11708348B2, “Protease inhibitors for treatment of coronavirus infections” (The Scripps Research Institute, priority 2021, dated 2023).

By EC50 is commonly meant the concentration giving half of the maximal effect.

For one assay, the system named is SARS-CoV-2 strain USA-WA1/2020. Nature of the assay: microbe, parasite or virus in culture. It counts as cell-based. To be noted: Severe acute respiratory syndrome coronavirus 2, HeLa-ACE2, 24 h, HeLa-ACE2 cells, SARS-CoV-2 infection, 24 h; cells given as a bound; read-out: EC50, uM (Hela).
As to `O=C(Nc1ccccc1F)C(=O)N1CCC[C@@H](C(=O)N[C@@H](C[C@@H]2CCNC2=O)C(=O)COc2c(F)c(F)cc(F)c2F)C1` [Compound 95, (R)-1-(2-((2-fluorophenyl)amino)-2-oxoacetyl)-N-((S)-3-oxo-1-((S)-2-oxopyrrolidin-3-yl)-4-(2,3,5,6-tetrafluorophenoxy)butan-2-yl)piperidine-3-carboxamide], the EC50 is > 1 µM.

For the compound `CC(=O)N1CCN(C(=O)C(=O)N[C@@H](CC(C)C)C(=O)N[C@@H](C[C@@H]2CCNC2=O)C(=O)COc2c(F)c(F)cc(F)c2F)CC1` [Compound 104, (S)-2-(2-(4-acetylpiperazin-1-yl)-2-oxoacetamido)-4-methyl-N-((S)-3-oxo-1-((S)-2-oxopyrrolidin-3-yl)-4-(2,3,5,6-tetrafluorophenoxy)butan-2-yl)pentanamide], the EC50 is > 1 µM.

Regarding `Cc1ccccc1NC(=O)C(=O)N(C)[C@@H](CC(C)C)C(=O)N[C@@H](C[C@@H]1CCNC1=O)C(=O)COc1c(F)c(F)cc(F)c1F` [Compound 105, N1-methyl-N1-((S)-4-methyl-1-oxo-1-(((S)-3-oxo-1-((S)-2-oxopyrrolidin-3-yl)-4-(2,3,5,6-tetrafluorophenoxy)butan-2-yl)amino)pentan-2-yl)-N2-(o-tolyl)oxalamide], the concentration for a half-maximal effect (EC50) was > 1 µM.

Staying with this assay, now noted: Severe acute respiratory syndrome coronavirus 2, HeLa-ACE2, 24 h, HeLa-ACE2 cells, SARS-CoV-2 infection, 24 h; class symbols; read-out: EC50, uM (Hela).
As for `CC(C)C[C@H](NC(=O)C(=O)NC1CCCC(F)(F)C1)C(=O)N[C@@H](C[C@@H]1CCNC1=O)C(=O)COc1c(F)c(F)cc(F)c1F` (stereo partly drawn) [Compound 94, Nl-(3,3-difluorocyclohexyl)-N2-((S)-4-methyl-1-oxo-1-(((S)-3-oxo-1-((S)-2-oxopyrrolidin-3-yl)-4-(2,3,5,6-tetrafluorophenoxy)butan-2-yl)amino)pentan-2-yl)oxalamide], the half-maximal effective concentration (EC50) lay within 0.05 to 0.2 µM.

As to `CC(C)C[C@H](NC(=O)C(Nc1ccccc1F)C(F)(F)F)C(=O)N[C@@H](C[C@@H]1CCNC1=O)C(=O)COc1c(F)c(F)cc(F)c1F` (stereo partly drawn) [Compound 97, (2S)-4-methyl-N-((S)-3-oxo-1-((S)-2-oxopyrrolidin-3-yl)-4-(2,3,5,6-tetrafluorophenoxy)butan-2-yl)-2-(3,3,3-trifluoro-2-((2-fluorophenyl)-amino)propanamido)-pentanamide], the EC50 lay within 0.2 to 0.5 µM.

Regarding `CC(C)C[C@H](NC(=O)C(=O)NC1CC1)C(=O)N[C@@H](C[C@@H]1CCNC1=O)C(=O)COc1c(F)c(F)cc(F)c1F` [Compound 98, N1-cyclopropyl-N2-((S)-4-methyl-1-oxo-1-(((S)-3-oxo-1-((S)-2-oxopyrrolidin-3-yl)-4-(2,3,5,6-tetrafluorophenoxy)butan-2-yl)amino)pentan-2-yl)oxalamide], the concentration for a half-maximal effect (EC50) lay in the range of 0.05 to 0.2 µM.

With `CC(C)C[C@H](NC(=O)C(=O)NC1(C)CC1)C(=O)N[C@@H](C[C@@H]1CCNC1=O)C(=O)COc1c(F)c(F)cc(F)c1F` [Compound 99, N1-((S)-4-methyl-1-oxo-1-(((S)-3-oxo-1-((S)-2-oxopyrrolidin-3-yl)-4-(2,3,5,6-tetrafluorophenoxy)butan-2-yl)amino)pentan-2-yl)-N2-(1-methyl-cyclopropyl)oxalamide], the concentration giving a half-maximal response (EC50) was in the range of 0.05 to 0.2 µM.

In the case of `CC(C)C[C@H](NC(=O)C(=O)NC(C)(C)C)C(=O)N[C@@H](C[C@@H]1CCNC1=O)C(=O)COc1c(F)c(F)cc(F)c1F` [Compound 100, N1-(tert-butyl)-N2-((S)-4-methyl-1-oxo-1-(((S)-3-oxo-1-((S)-2-oxopyrrolidin-3-yl)-4-(2,3,5,6-tetrafluorophenoxy)butan-2-yl)amino)pentan-2-yl)oxalamide], the EC50 was in the range of 0.05 to 0.2 µM.

As for `CC(C)C[C@H](NC(=O)C(=O)NC1CCOCC1)C(=O)N[C@@H](C[C@@H]1CCNC1=O)C(=O)COc1c(F)c(F)cc(F)c1F` [Compound 101, N1-((S)-4-methyl-1-oxo-1-(((S)-3-oxo-1-((S)-2-oxopyrrolidin-3-yl)-4-(2,3,5,6-tetrafluorophenoxy)butan-2-yl)amino)pentan-2-yl)-N2-(tetrahydro-2H-pyran-4-yl)oxalamide], the concentration giving a half-maximal response (EC50) was 0.05 to 0.2 µM.

Consider `CC(C)C[C@H](NC(=O)C(=O)NC1CCCC1)C(=O)N[C@@H](C[C@@H]1CCNC1=O)C(=O)COc1c(F)c(F)cc(F)c1F` [Compound 102, N1-cyclopentyl-N2-((S)-4-methyl-1-oxo-1-(((S)-3-oxo-1-((S)-2-oxopyrrolidin-3-yl)-4-(2,3,5,6-tetrafluorophenoxy)butan-2-yl)amino)pentan-2-yl)oxalamide], for which the EC50 lay within 0.05 to 0.2 µM.

Regarding `CC(C)C[C@H](NC(=O)C(=O)N[C@H]1CCCOC1)C(=O)N[C@@H](C[C@@H]1CCNC1=O)C(=O)COc1c(F)c(F)cc(F)c1F` [Compound 103, N1-((S)-4-methyl-1-oxo-1-(((S)-3-oxo-1-((S)-2-oxopyrrolidin-3-yl)-4-(2,3,5,6-tetrafluorophenoxy)butan-2-yl)amino)pentan-2-yl)-N2-((S)-tetrahydro-2H-pyran-3-yl)oxalamide], the 50% effective concentration (EC50) was 0.05 to 0.2 µM.

Regarding `Cc1ccccc1NC(=O)C(=O)N[C@@H](Cc1ccccc1)C(=O)N[C@@H](C[C@@H]1CCNC1=O)C(=O)COc1c(F)c(F)cc(F)c1F` [Compound 106, N1-((S)-1-oxo-1-(((S)-3-oxo-1-((S)-2-oxopyrrolidin-3-yl)-4-(2,3,5,6-tetrafluorophenoxy)butan-2-yl)amino)-3-phenylpropan-2-yl)-N2-(o-tolyl)oxalamide], the EC50 was < 0.05 µM.

As to `Cc1ccccc1N(C)C(=O)C(=O)N[C@@H](CC(C)C)C(=O)N[C@@H](C[C@@H]1CCNC1=O)C(=O)COc1c(F)c(F)cc(F)c1F` [Compound 107, N1-methyl-N2-((S)-4-methyl-1-oxo-1-(((S)-3-oxo-1-((S)-2-oxopyrrolidin-3-yl)-4-(2,3,5,6-tetrafluorophenoxy)butan-2-yl)amino)pentan-2-yl)-N1-(o-tolyl)oxalamide], the EC50 was 0.2 to 0.5 µM.

In the case of `O=C(Nc1ccccc1F)C(=O)N[C@@H](CCC1CCCCC1)C(=O)N[C@@H](C[C@@H]1CCNC1=O)C(=O)COc1c(F)c(F)cc(F)c1F` [Compound 108, N1-((S)-4-cyclohexyl-1-oxo-1-(((S)-3-oxo-1-((S)-2-oxopyrrolidin-3-yl)-4-(2,3,5,6-tetrafluorophenoxy)butan-2-yl)amino)butan-2-yl)-N2-(2-fluorophenyl)oxalamide], the EC50 was 0.2 to 0.5 µM.

With `O=C(Nc1ccccc1F)C(=O)N[C@@H](CC1CC1)C(=O)N[C@@H](C[C@@H]1CCNC1=O)C(=O)COc1c(F)c(F)cc(F)c1F` [Compound 109, N1-((S)-3-cyclopropyl-1-oxo-1-(((S)-3-oxo-1-((S)-2-oxopyrrolidin-3-yl)-4-(2,3,5,6-tetrafluorophenoxy)butan-2-yl)amino)propan-2-yl)-N2-(2-fluorophenyl)oxalamide], the EC50 was < 0.05 µM.

`O=C(N[C@@H](CC1CCCCC1)C(=O)N[C@@H](C[C@@H]1CCNC1=O)C(=O)COc1c(F)c(F)cc(F)c1F)c1cc(-c2ccccc2F)on1` [Compound 110, N-((S)-3-cyclohexyl-1-oxo-1-(((S)-3-oxo-l-((S)-2-oxopyrrolidin-3-yl)-4-(2,3,5,6-tetrafluorophenoxy)butan-2-yl)amino)propan-2-yl)-5-(2-fluorophenyl)isoxazole-3-carboxamide]: the concentration giving a half-maximal response (EC50) lay within 0.2 to 0.5 µM.

As for `O=C(Nc1ccccc1Cc1ccccc1)C(=O)N[C@@H](CC1CCCCC1)C(=O)N[C@@H](C[C@@H]1CCNC1=O)C(=O)COc1c(F)c(F)cc(F)c1F` [Compound 111, N1-(2-benzylphenyl)-N2-((S)-3-cyclohexyl-1-oxo-1-(((S)-3-oxo-1-((S)-2-oxopyrrolidin-3-yl)-4-(2,3,5,6-tetrafluorophenoxy)butan-2-yl)amino)propan-2-yl)oxalamide], the concentration giving a half-maximal response (EC50) lay in the range of 0.05 to 0.2 µM.

Take `COc1ccccc1NC(=O)C(=O)N[C@@H](CC(C)C)C(=O)N[C@@H](C[C@@H]1CCNC1=O)C(=O)COc1c(F)c(F)cc(F)c1F` [Compound 112, N1-(2-methoxyphenyl)-N2-((S)-4-methyl-1-oxo-1-(((S)-3-oxo-1-((S)-2-oxopyrrolidin-3-yl)-4-(2,3,5,6-tetrafluorophenoxy)butan-2-yl)amino)pentan-2-yl)oxalamide]: the concentration for a half-maximal effect (EC50) fell in the range of 0.05 to 0.2 µM.

As to `CC(C)C[C@H](NC(=O)C(=O)Nc1ccccc1OC(F)(F)F)C(=O)N[C@@H](C[C@@H]1CCNC1=O)C(=O)COc1c(F)c(F)cc(F)c1F` [Compound 113, N1-((S)-4-methyl-1-oxo-1-(((S)-3-oxo-1-((S)-2-oxopyrrolidin-3-yl)-4-(2,3,5,6-tetrafluorophenoxy)butan-2-yl)amino)pentan-2-yl)-N2-(2-(trifluoromethoxy)-phenyl)oxalamide], the EC50 was < 0.05 µM.

As to `Cc1cc(C(=O)N[C@@H](CC(C)C)C(=O)N[C@@H](C[C@@H]2CCNC2=O)C(=O)COc2c(F)c(F)cc(F)c2F)no1` [Compound 114, 5-methyl-N-((S)-4-methyl-1-oxo-1-(((S)-3-oxo-1-((S)-2-oxopyrrolidin-3-yl)-4-(2,3,5,6-tetrafluorophenoxy)butan-2-yl)amino)pentan-2-yl)isoxazole-3-carboxamide], the 50% effective concentration (EC50) is 0.5 to 1 µM.

On to `Cc1cc(C(=O)N[C@H](C(=O)N[C@@H](CC(C)C)C(=O)N[C@@H](C[C@@H]2CCNC2=O)C(=O)COc2c(F)c(F)cc(F)c2F)C(C)C)no1` [Compound 115, 5-methyl-N-((S)-3-methyl-1-(((S)-4-methyl-1-oxo-1-(((S)-3-oxo-1-((S)-2-oxopyrrolidin-3-yl)-4-(2,3,5,6-tetrafluorophenoxy)butan-2-yl)amino)pentan-2-yl)amino)-1-oxobutan-2-yl)isoxazole-3-carboxamide], for which the concentration giving a half-maximal response (EC50) was 0.2 to 0.5 µM.

The same assay, now with this note: Severe acute respiratory syndrome coronavirus 2, HeLa-ACE2, 24 h; read-out: EC50, uM (Hela).
For `CC(C)C[C@H](NC(=O)C(=O)Nc1ccc(Br)cc1F)C(=O)N[C@@H](C[C@@H]1CCNC1=O)C(=O)COc1c(F)c(F)cc(F)c1F` [Compound 96, N1-(4-bromo-2-fluorophenyl)-N2-((S)-4-methyl-1-oxo-1-(((S)-3-oxo-1-((S)-2-oxopyrrolidin-3-yl)-4-(2,3,5,6-tetrafluorophenoxy)butan-2-yl)amino)pentan-2-yl)oxalamide], the EC50 was 0.05 to 0.2 µM.
